Results from paper PMC2843756 (European journal of medicinal chemistry, 2010).

Legend:
[1] = system: Mycobacteria tuberculosis H37Rv; conditions: earlier work of the authors; cited from earlier work
[2] = mice, po once a day, 100 mg/kg five days, 2 days rest, 200 mg/kg five days
[3] = system: Mycobacterium tuberculosis H37Rv; assay: Microplate Alamar Blue Assay; type: cell-based; conditions: for anti-TB activity (in words): qualitative statement; for MIC: medium not specified
[4] = Metabolic stability in rat liver microsomes; type: in vitro ADME, Sprague-Dawley rat; conditions: in vitro metabolism
[5] = system: panel of nontuberculosis mycobacteria and other bacteria (Gram positive and negative) as well as select strains of yeast; assay: MIC against panel of nontuberculosis mycobacteria, other bacteria and yeast; type: cell-based; conditions: all strains of the panel; MIC's equal to negative control
[6] = system: Mycobacterium vaccae 10670 and Mycobacterium fortuitum B; assay: Agar diffusion assay; type: cell-based
VERO cells = assay: VERO cytotoxicity assay; conditions: compared with non-methyl analog
[7] = Mycobacterium tuberculosis, H37RV

CCCCCCCCCCCCCCCC(=O)N(O)CCCC[C@H](NC(=O)[C@@H]1COC(c2ccccc2O)=N1)C(=O)OC[C@H](NC(=O)OC(C)(C)C)C(=O)N[C@H]1CCCCN(O)C1=O [Compound 2]
effect on growth of Mycobacteria tuberculosis H37Rv [1]: potent inhibition of TB growth

O=C(OCc1ccccc1)[C@@H]1COC(c2ccccc2OCc2ccccc2)=N1 [Compound 3, (S)-Benzyl 2-(2-(benzyloxy)phenyl)-4,5-dihydrooxazole-4-carboxylate]
tolerability (body weight, gross appearance and behavior) [2]: well tolerated

O=C(O)[C@@H]1COC(c2ccccc2O)=N1 [Compound 4]
anti-TB activity (in words) [3]: lost all activity

COC(=O)[C@@H]1COC(c2ccccc2OCc2ccccc2)=N1 [Compound 12]
anti-TB activity (in words) [3]: considerably less active

O=C(OCc1ccccc1)[C@@H]1COC(c2ccccc2)=N1 [Compound 15, (S)-Benzyl 4,5-dihydro-2-phenyloxazole-4-carboxylate]
major metabolite [4]: the corresponding carboxylic acid | MIC against panel (in words) [5]: inactive | zones of inhibition [6]: some zones of inhibition | tolerability (body weight, gross appearance and behavior) [2]: well tolerated

COC(=O)[C@@H]1COC(c2cccc(Cl)c2)=N1 [Compound 19]
anti-TB activity (in words) [3]: considerably less active

COC(=O)[C@@H]1COC(c2ccc([N+](=O)[O-])cc2)=N1 [Compound 27]
anti-TB activity (in words) [3]: considerably less active

O=C(OCc1ccccc1)[C@@H]1COC(c2ccc(F)c([N+](=O)[O-])c2)=N1 [Compound 29, (S)-Benzyl 2-(4-fluoro-3-nitrophenyl)-4,5-dihydrooxazole-4-carboxylate]
MIC against panel (in words) [5]: inactive | zones of inhibition [6]: some zones of inhibition | tolerability (body weight, gross appearance and behavior) [2]: well tolerated

O=C(OCc1ccccc1)[C@@H]1COC(Cc2ccccc2)=N1 [Compound 43]
anti-TB activity (in words) [3]: diminished activity

COc1ccc(CC2=N[C@H](C(=O)OCc3ccccc3)CO2)cc1 [Compound 44]
anti-TB activity (in words) [3]: diminished activity

O=C(OCc1ccccc1)c1coc(-c2cccc(Cl)c2)n1 [Compound 59]
MIC [3, 7]: < 1 µM

COc1ccc(-c2nc(C(=O)OCc3ccccc3)co2)cc1 [Compound 60, Benzyl 2-(4-methoxyphenyl)oxazole-4-carboxylate]
MIC against panel (in words) [5]: inactive | zones of inhibition [6]: some zones of inhibition | tolerability (body weight, gross appearance and behavior) [2]: well tolerated

O=C(OCc1ccccc1)c1coc(-c2ccccc2OCc2ccccc2)n1 [Compound 63, Benzyl 2-(2-(benzyloxy)phenyl)oxazole-4-carboxylate]
MIC against panel (in words) [5]: inactive | zones of inhibition [6]: some zones of inhibition | tolerability (body weight, gross appearance and behavior) [2]: well tolerated

O=C(OCc1ccccc1)c1coc(-c2ccccc2)n1 [Compound 65, Benzyl 2-phenyloxazole-4-carboxylate]
MIC [3, 7]: < 1 µM | MIC [3]: < 0.5 µM | MIC against panel (in words) [5]: inactive | zones of inhibition [6]: some zones of inhibition | tolerability (body weight, gross appearance and behavior) [2]: well tolerated

O=C(OCc1ccccc1)c1coc(-c2ccc(F)c([N+](=O)[O-])c2)n1 [Compound 66, Benzyl 2-(4-fluoro-3-nitrophenyl)oxazole-4-carboxylate]
MIC [3, 7]: < 1 µM | MIC against panel (in words) [5]: inactive | zones of inhibition [6]: some zones of inhibition

O=C(OCc1ccccc1)c1coc(-c2ccccc2Cl)n1 [Compound 68, Benzyl 2-(2-chlorophenyl)oxazole-4-carboxylate]
MIC [3, 7]: < 1 µM | MIC against panel (in words) [5]: inactive | zones of inhibition [6]: some zones of inhibition | tolerability (body weight, gross appearance and behavior) [2]: well tolerated

O=C(OCc1ccccc1)c1coc(-c2ccc([N+](=O)[O-])cc2F)n1 [Compound 70]
MIC [3, 7]: < 1 µM

O=C(OCc1ccccc1)c1coc(-c2cncc(-c3ccccc3)c2)n1 [Compound 78]
MIC [3, 7]: < 1 µM

O=C(OCc1ccccc1)c1coc(-c2cccc(F)c2)n1 [Compound 89]
MIC [3, 7]: < 1 µM

Cc1oc(-c2ccccc2)nc1C(=O)OCc1ccccc1 [Compound 109]
anti-TB activity (in words) [3]: diminished anti-TB activity | toxicity in the VERO assay (in words) (VERO cells): greatly increased toxicity

COc1ccc(-c2nc(C(=O)OCc3ccccc3)c(C)o2)cc1 [Compound 110]
anti-TB activity (in words) [3]: diminished anti-TB activity

Cc1oc(-c2ccc(F)cc2[N+](=O)[O-])nc1C(=O)OCc1ccccc1 [Compound 111]
anti-TB activity (in words) [3]: diminished anti-TB activity

CCCCCCCCCCCCCCCC(=O)N(O)CCCC[C@H](NC(=O)[C@@H]1COC(c2ccccc2O)=N1)C(=O)O[C@@H](C)CC(=O)N[C@H]1CCCCN(O)C1=O [Mycobactin S]
effect on growth of Mycobacteria tuberculosis H37Rv [1]: inhibits the growth

mycobactin T
effect on growth of Mycobacteria tuberculosis H37Rv [1]: promotes growth
